# Measurements published in US20240251785A1, “SMALL MOLECULE ANTAGONISTS AND AGONISTS OF ARTHROPOD KININ RECEPTORS FOR PEST CONTROL” (The Texas A&M University System, priority 2021, published 2024).
# Like-named read-outs stand apart in the source and are kept apart here.
# What was measured:
# [1] = test system: vector-only (V/O) CHO-K1 cells; assay: Dose-response dual-addition calcium fluorescence assay on vector-only cells; assay type: cell-based; settings: for IC50: read-out: V/O antagonist IC50
# [2] = molecular target: recombinant tick kinin receptor (BMLK3) (Rhipicephalus microplus, UniProt Q9NHA4); assay: Dose-response dual-addition calcium fluorescence assay on BMLK3 cells; assay type: cell-based; settings: for EC50: read-out: BMLK3 EC50; for validation mark in dose-response assay: Table 3
# [3] = test system: R. microplus kinin receptor; assay: High-throughput dual-addition calcium fluorescence screen on BMLK3 cells; assay type: cell-based, Rhipicephalus microplus; settings: for antagonist Io (%): compound 2 μmol L^−1, 5 min, then FFFSWGa 500 nmol L^−1; for agonist NPA (%): compound 2 μmol L^−1, first addition, relative to FFFSWGa 500 nmol L^−1
# [4] = virtual hit molecules, dual-addition assay, vector-only cell (V/O)
# [5] = virtual hit molecules, dual-addition assay, recombinant tick kinin receptor (BMLK3) cells
# [6] = virtual hit molecules, dual-addition assay, recombinant tick kinin receptor (BMLK3) cells, read-out: BMLK3 antagonist IC50
# [7] = V/O cells, second addition Rhimi-K-1 1 μmol L^−1
# [8] = first addition, 20 concentrations 28 nM-25 μM
# [9] = second addition Rhimi-K-1 1 μmol L^−1, read-out: BMLK3 IC50
# Sequence of recombinant tick kinin receptor (BMLK3) (Q9NHA4 entry or part of it): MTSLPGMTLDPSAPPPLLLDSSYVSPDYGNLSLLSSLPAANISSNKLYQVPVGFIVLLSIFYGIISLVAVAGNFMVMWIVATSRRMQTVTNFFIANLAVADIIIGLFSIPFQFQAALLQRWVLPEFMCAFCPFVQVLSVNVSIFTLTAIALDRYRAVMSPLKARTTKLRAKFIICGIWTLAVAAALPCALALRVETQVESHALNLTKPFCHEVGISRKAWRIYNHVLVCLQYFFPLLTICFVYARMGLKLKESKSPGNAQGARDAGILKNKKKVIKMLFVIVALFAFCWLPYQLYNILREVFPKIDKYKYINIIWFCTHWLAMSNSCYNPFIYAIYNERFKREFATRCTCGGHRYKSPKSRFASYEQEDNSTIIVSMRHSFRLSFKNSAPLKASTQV
Structure (SMILES),"EC50 [2, 5] [µM]","IC50 [2, 6] [µM]","EC50 [2, 8] [µM]","IC50 [2, 9] [µM]","EC50 [1, 4] [µM]","IC50 [1, 4] [µM]","EC50 ([1]; V/O cells, first addition) [µM]","IC50 [1, 7] [µM]",validation mark in dose-response assay [2],antagonist Io (%) [3] [%],agonist NPA (%) [3] [%]
O=[N+]([O-])c1ccc2nc(Nc3ccc(Br)cc3)c(Nc3ccc(Br)cc3)nc2c1 [SACC-0005102],1.08,0.0832,–,–,0.485,0.177,–,–,–,–,–
CC(=O)c1cc(C(=O)N[C@H](C)c2nc(-c3cccnc3)n[nH]2)cs1 [SACC-0007370],–,–,1.78,1.42,–,–,< 0.0285,> 25,*** (molecules which are either off-target or of low activity (<25 μM)),60,–
C=CCNC(=S)NNC1=CC[C@@H](c2ccccc2)CC1 [SACC-0010978],> 25,9.82,–,–,0.0677,12.2,–,–,–,–,–
c1ccc(-c2csc3ncnc(N4CCCC4c4cccnc4)c23)cc1 (stereo not shown) [SACC-0011206],> 25,6.54,–,–,17.5,0.985,–,–,–,–,–
c1ccc(-c2csc3ncnc(Nc4ccc5c(c4)OCCO5)c23)cc1 [SACC-0011565],0.0417,> 25,–,–,> 25,1.22,–,–,–,–,–
CC1=C(Cc2ccccc2)C(C)Nc2ccccc2N1 (stereo not shown) [SACC-0026915],–,–,0.662,4.6,–,–,1,> 25,*** (molecules which are either off-target or of low activity (<25 μM)),–,111
Cc1n[nH]c(C)c1N1C(=O)c2cccc3c(N4CCCCCC4)ccc(c23)C1=O [SACC-0027895],–,–,> 25,> 25,–,–,> 25,> 25,*** (molecules which are either off-target or of low activity (<25 μM)),–,84
CC1=CC(=NNC(=S)NCc2ccccc2)CC1 [SACC-0029249],> 25,1.88,–,–,> 25,< 0.0285,–,–,–,–,–
Cc1cc(C(C)(C)C)cc(C)c1CSC(=N)N [SACC-0029825],–,–,6.95,< 0.0285,–,–,5.46,9.81,*** (molecules which are either off-target or of low activity (<25 μM)),–,70
C=C(NNC(=S)Nc1c(C)cccc1C)c1cc2ccccc2o1 [SACC-0037245],–,–,5.78,4.43,–,–,< 0.0285,0.605,*** (molecules which are either off-target or of low activity (<25 μM)),63,–
Cc1nc(-c2ccc(CNc3ncnc4sccc34)o2)cs1 [SACC-0039825],< 0.0285,8.06,–,–,> 25,0.334,–,–,–,–,–
CCC(CO)Nc1nc(CN2CCCCC2)nc2scc(-c3ccccc3)c12 (stereo not shown) [SACC-0046099],> 25,8.31,–,–,3.58,2.45,–,–,–,–,–
CCc1cc2c(NCc3ccco3)nc(C)nc2s1 [SACC-0047526],> 25,> 25,–,–,> 25,> 25,–,–,–,–,–
CCCC1=CC(=C2NNC(C)=C2c2ccc(C(=O)OCC)o2)C(O)=CC1=O [SACC-0048694],–,–,0.281,> 25,–,–,6.87,17.5,*** (molecules which are either off-target or of low activity (<25 μM)),65,–
CCCc1cc(-c2cc(O)n3nc(C)c(CC)c3n2)no1 [SACC-0048722],–,–,4.17,> 25,–,–,< 0.0285,4.32,*** (molecules which are either off-target or of low activity (<25 μM)),56,–
CCN(CC)c1ccc2cc(C(N)=O)c(=NNC(=O)c3cccs3)oc2c1 [SACC-0052578],–,–,> 25,> 25,–,–,> 25,> 25,*** (molecules which are either off-target or of low activity (<25 μM)),–,166
CCNc1nc(NCc2ccco2)c2ccccc2n1 [SACC-0055093],–,–,0.898,10.3,–,–,0.683,0.376,*** (molecules which are either off-target or of low activity (<25 μM)),–,128
CCOC(=O)c1[nH]c2ccc(Br)cc2c1N=C(C)N(C)C [SACC-0055903],–,–,6.76,6.02,–,–,3.68,2.63,*** (molecules which are either off-target or of low activity (<25 μM)),–,75
O=C(Nc1ccc(I)cc1)C(Cl)(Cl)Cl [SACC-0062945],–,–,< 0.0285,0.128,–,–,0.0604,3.84,*** (molecules which are either off-target or of low activity (<25 μM)),–,61
C=CCn1cnnc1SCC1CC1(Cl)Cl (stereo not shown) [SACC-0063031],–,–,0.246,0.242,–,–,17,4.45,*** (molecules which are either off-target or of low activity (<25 μM)),80,–
CN1/C(=C/C=C/c2ccc3ccccc3[n+]2C)C=Cc2ccccc21 [SACC-0072383],0.326,0.501,–,–,0.294,> 25,–,–,–,–,–

# Now from value to molecule, other results behind:
"EC50 [2, 5] [µM]","IC50 [2, 6] [µM]","EC50 [2, 8] [µM]","IC50 [2, 9] [µM]",Structure (SMILES),"EC50 [1, 4] [µM]","IC50 [1, 4] [µM]","EC50 ([1]; V/O cells, first addition) [µM]","IC50 [1, 7] [µM]",validation mark in dose-response assay [2],antagonist Io (%) [3] [%],agonist NPA (%) [3] [%]
–,–,4.32,6.3,CC(C)(C)c1ccc(C(=O)NNC(=S)NC(=O)c2cccnc2)cc1 [SACC-0015467],–,–,3.45,7.1,*** (molecules which are either off-target or of low activity (<25 μM)),–,70
–,–,9.01,0.252,CC1(C)CSC(=NCc2ccccc2)N1C(=O)Cc1noc2ccccc12 [SACC-0024181],–,–,8.1,6.27,*** (molecules which are either off-target or of low activity (<25 μM)),–,48
–,–,> 25,0.765,Cc1cc2ncn(CCCCSc3ccccc3)c2cc1C [SACC-0025692],–,–,9.54,0.112,*** (molecules which are either off-target or of low activity (<25 μM)),42,–
> 25,0.106,–,–,Cc1ccc(S(=O)(=O)Nc2nc(CN3CCCC3)nc3sc(C)c(C)c23)cc1 [SACC-0025777],1.57,> 25,–,–,–,–,–
–,–,< 0.0285,0.225,Cc1oc(S(=O)(=O)N2CCOCC2)cc1C(=O)Nc1ccc(F)cc1 [SACC-0026188],–,–,0.154,> 25,*** (molecules which are either off-target or of low activity (<25 μM)),67,–
–,–,2.95,7.17,Cc1ccc(-c2ccsc2C(=O)Nc2ccc3c(c2)CCO3)cc1 [SACC-0033336],–,–,4.34,> 25,*** (molecules which are either off-target or of low activity (<25 μM)),–,51
–,–,7.77,< 0.0285,Cc1cccc(NC(=O)c2c(F)c(F)c(F)c(F)c2F)n1 [SACC-0037442],–,–,> 25,7.18,*** (molecules which are either off-target or of low activity (<25 μM)),52,–
–,–,13.2,3.09,Cc1nc(C)c(C(=O)N(Cc2ccco2)C2CCN(c3ccc4c(c3)OCO4)CC2)s1 [SACC-0040154],–,–,0.12,1.24,*** (molecules which are either off-target or of low activity (<25 μM)),–,81
–,–,4.55,> 25,CCOc1ccc(NC(=N)/N=c2/nc(C(F)(F)F)cc(C)[nH]2)cc1 [SACC-0060049],–,–,1.93,0.243,*** (molecules which are either off-target or of low activity (<25 μM)),–,104
–,–,0.504,0.21,O=C(CSC1=NCCS1)c1ccc(Cl)cc1 [SACC-0064624],–,–,> 25,> 25,*** (molecules which are either off-target or of low activity (<25 μM)),76,–
17.3,< 0.0285,–,–,Clc1ccc(-c2csc3ncnc(N4CCN(c5ccccn5)CC4)c23)cc1 [SACC-0064924],11.9,> 25,–,–,–,–,–
1.11,< 0.0285,–,–,COc1ccc(C=Nn2c(C(F)(F)F)n[nH]c2=S)cc1 [SACC-0087120],3.16,> 25,–,–,–,–,–
> 25,8.47,–,–,COc1cc2c(cc1OC)CN(c1ncnc3scc(-c4ccc(Cl)cc4)c13)CC2 [SACC-0095849],0.393,0.914,–,–,–,–,–
> 25,< 0.0285,–,–,N#CC(=C(O)c1ccc(-c2ccc(Cl)cc2Cl)o1)c1nc2ccccc2c(=O)[nH]1 [SACC-0112961],0.243,> 25,–,–,–,–,–
0.124,13.2,–,–,O=C(c1ccco1)N1CCN(c2cccc3scc(-c4cccs4)c23)CC1 [SACC-0117388],1.78,8.39,–,–,–,–,–
16.6,1.41,–,–,S=C(NCc1ccccc1)NN=C1CCC(c2ccccc2)CC1 (stereo not shown) [SACC-0131532],> 25,> 25,–,–,–,–,–
